# Like-named read-outs stand apart in the source and are kept apart here.
# Legend:
# [1] = tested on: Pyrenophora teres; assay: Synergistic mixture microtiter test: Pyrenophora teres; format: cell-based; details: single compound
# [2] = tested on: Puccinia recondita; assay: Synergistic mixture glasshouse trial: preventative control of brown rust caused by Puccinia recondita; format: in vivo; details: single compound, wheat, untreated control 80% diseased leaf area
# Description: The spray solutions were prepared in several steps: The stock solution were prepared: a mixture of acetone and/or dimethylsulfoxide and the wetting agent/emulsifier Wettol, which is based on ethoxylated alkylphenoles, in a relation (volume) solvent-emulsifier of 99 to 1 was added to 25 mg of the compound to give a total of 10 ml. Water was then added to total volume of 100 ml. This stock solution was diluted with the described solvent-emulsifier-water mixture to the given concentration.
# The first two developed leaves of pot-grown wheat seedling were sprayed to run-off with an aqueous suspension, containing the concentration of active ingredient or their mixture as described below. The next day the plants were inoculated with spores of Puccinia recondita. To ensure the success the artificial inoculation, the plants were transferred to a humid chamber without light and a relative humidity of 95 to 99% and 20 to 22° C. for 24 h. Then the trial plants were cultivated for 6 days in a greenhouse chamber at 22-26° C. and a relative humidity between 65 and 70%. The extent of fungal attack on the leaves was visually assessed as % diseased leaf area.
# The percentages diseased leaf area were converted into efficacies. An efficacy of 0 means that the infection level of the treated plants corresponds to that of the untreated control plants; an efficacy of 100 means that the treated plants were not infected.
# The expected efficacies of active compound mixtures were determined using Colby's formula as described earlier herein.
# [3] = tested on: Septoria tritici; assay: Synergistic mixture microtiter test: leaf blotch on wheat caused by Septoria tritici; format: cell-based; details: single compound
# [4] = tested on: Alternaria solani; assay: Synergistic mixture microtiter test: Alternaria solani; format: cell-based; details: single compound
# [5] = tested on: Phytophthora infestans; format: cell-based; details: single compound
SMILES,Observed efficacy (%) ([1]; 0.25 ppm),Observed efficacy (%) ([3]; 4 ppm),Observed efficacy (%) ([2]; 16 ppm),Observed efficacy (%) ([4]; 0.25 ppm),other results
"Fc1ccc([C@]2(Cn3cncn3)O[C@H]2c2ccccc2Cl)cc1 (racemic) [Epoxiconazole, epoxiconazole, reference compound]",8,–,–,–,Observed efficacy (%) ([2]; 0.25 ppm): 0%
"O=C(Nc1ccccc1-c1ccc(Cl)cc1)c1cccnc1Cl [Boscalid, boscalid, reference compound]",63,75,0,–,Observed efficacy (%) ([1]; 0.016 ppm): 0%; Observed efficacy (%) ([2]; 4 ppm): 0%
CSc1nccc(CNS(=O)(=O)c2ccc(Oc3ncc(C(F)(F)F)cc3Cl)cc2)n1 [Example I-5],0,22,–,2,Observed efficacy (%) ([1]; 4 ppm): 21%
"COc1nccc(CNS(=O)(=O)c2ccc(Oc3ncc(C(F)(F)F)cc3Cl)c(C)c2)n1 [Example I-17, 4-(3-chloro-5-trifluoromethyl-pyridin-2-yloxy)-N-(2-methoxy-pyrimidin-4-ylmethyl)-3-methyl-benzenesulfonamide]",–,–,–,–,melting point: 138 °C
COc1nccc(CNS(=O)(=O)c2ccc(Oc3ccc(C(F)(F)F)cn3)cc2C)n1 [Example I-22],–,–,–,3,Observed efficacy (%) ([1]; 0.016 ppm): 1%
O=S(=O)(NCc1ccnc(C2CC2)n1)c1ccc(Oc2ncccc2C(F)(F)F)cc1 [Example I-27],–,27,27,3,Observed efficacy (%) ([4]; 4 ppm): 0%; Observed efficacy (%) ([1]; 4 ppm): 26%
CCOc1nccc(CNS(=O)(=O)c2ccc(Oc3ncccc3C(F)(F)F)cc2)n1 [Example I-52],–,29,29,0,Observed efficacy (%) ([4]; 4 ppm): 0%; Observed efficacy (%) ([5]; 16 ppm): 53%
CSc1ncc(F)c(CNS(=O)(=O)c2ccc(Oc3ccc(C(F)(F)F)cn3)cc2)n1 [Example I-72],–,14,0,3,Observed efficacy (%) ([1]; 4 ppm): 14%; Observed efficacy (%) ([2]; 4 ppm): 0%
COc1cc(CNS(=O)(=O)c2ccc(Oc3ccc(C(F)(F)F)cn3)cc2)nc(OC)n1 [Example I-88],16,–,–,4,–
COc1cc(CNS(=O)(=O)c2ccc(Oc3ncc(C(F)(F)F)cc3Cl)cc2)nc(OC)n1 [Example I-118],–,25,–,1,–
COc1nccc(CNS(=O)(=O)c2ccc(OCc3cncc(C(F)(F)F)c3)cc2)n1 [Example I-125],–,23,–,4,Observed efficacy (%) ([2]; 4 ppm): 13%
"COC(=O)N(OC)c1ccccc1COc1ccn(-c2ccc(Cl)cc2)n1 [Pyraclostrobin, pyraclostrobin, reference compound]",–,–,–,–,Observed efficacy (%) ([3]; 0.063 ppm): 74%; Observed efficacy (%) ([4]; 0.063 ppm): 48%; Observed efficacy (%) ([1]; 0.004 ppm): 0%; Observed efficacy (%) ([5]; 0.25 ppm): 38%; Observed efficacy (%) ([2]; 0.25 ppm): 0%

# Source: US20110039693A1, “Pyrimidylmethyl Sulfonamide Compounds” (BASF SE, priority 2008, published 2011)
